Measured values from ChEMBL document CHEMBL1201862, “PubChem BioAssay data set” (2004).
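Exposure lasted 48 hours, with cells grown in 96-well plates and compounds tested at five concentrations. Abbreviation: GI50, concentration required for 50% inhibition of growth.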 Calls of active or inactive are those of the source. Rule as the data show it: active = GI50 up to about 1.1 µM and inactive = higher.

Legend:
Assay in all cases: growth of human tumour cells (NCI), 48 h
[1] = tested on: A498
[2] = tested on: CAKI-1
[3] = tested on: EKVX
[4] = tested on: HL-60
[5] = tested on: HOP-62
[6] = tested on: KM12
[7] = tested on: M14
[8] = tested on: MDA-N
[9] = tested on: NCI/ADR-RES
[10] = tested on: OVCAR-5
[11] = tested on: OVCAR-8
[12] = tested on: PC-3
[13] = tested on: RPMI-8226
[14] = tested on: SF-268
[15] = tested on: SK-OV-3
[16] = tested on: SNB-75
[17] = tested on: UACC-257
[18] = tested on: HOP-92
[19] = tested on: SN12C
[20] = tested on: RXF 393

Measured: GI50

C=C(C)C(=O)OC1C[C@H](COC(C)=O)C2CC=C(CO)C2C2OC(=O)C(=C)[C@H]12 (some centres not stated)
inactive: [1] > 100 µM | [2] 41.6 µM | [3] > 100 µM | [4] 23.1 µM | [5] > 100 µM | [6] > 100 µM | [7] 16.3 µM | [8] 34.5 µM | [9] 45.4 µM | [10] > 100 µM | [11] > 100 µM | [12] > 100 µM | [13] 12.4 µM | [14] 23.6 µM | [15] > 100 µM | [16] 69.2 µM | [17] 38.8 µM

CCN(CC)CCOc1ccc(N2C(=O)c3cccc4cc([N+](=O)[O-])cc(c34)C2=O)cc1
inactive: [1] 9.62 µM | [2] 11.5 µM | [3] 16.3 µM | [4] 11.8 µM | [5] 1.14 µM | [18] 20 µM | [6] 12.5 µM | [7] 12.4 µM | [8] 14.6 µM | [9] 16.8 µM | [10] 2.88 µM | [11] 10.9 µM | [12] 6.73 µM | [14] 10.9 µM | [19] 17.4 µM | [16] 14.5 µM | [17] 13.1 µM

OC1c2ccccc2C(O)C2OC12 (configuration not stated)
inactive: [1] > 100 µM | [2] > 100 µM | [4] > 100 µM | [5] > 100 µM | [18] > 100 µM | [6] > 100 µM | [7] > 100 µM | [8] > 100 µM | [9] > 100 µM | [10] > 100 µM | [11] > 100 µM | [12] > 100 µM | [13] > 100 µM | [20] > 100 µM | [14] > 100 µM | [15] > 100 µM | [19] > 100 µM | [17] > 100 µM

COC(=O)/C=C(\C)CC/C=C(\C)CCC1OC1(C)C (configuration not stated)
inactive: [1] 14.5 µM | [2] 11.7 µM | [3] 13 µM | [4] 1.87 µM | [5] 15.8 µM | [18] 11.9 µM | [6] 9.48 µM | [7] 12.6 µM | [8] 11.7 µM | [9] 13.9 µM | [10] 13.6 µM | [11] 12.9 µM | [12] 8.36 µM | [20] 13.3 µM | [15] 23.7 µM | [19] 10.2 µM | [16] 17.4 µM | [17] 12.5 µM

Cn1c(=O)c2c(nc3n2CC(=O)N3CCCCl)n(C)c1=O
inactive: [1] > 100 µM | [2] > 100 µM | [3] > 100 µM | [4] > 100 µM | [5] > 100 µM | [18] > 100 µM | [6] > 100 µM | [7] > 100 µM | [8] > 100 µM | [9] > 100 µM | [10] > 100 µM | [11] > 100 µM | [12] > 100 µM | [13] > 100 µM | [14] > 100 µM | [15] > 100 µM | [19] > 100 µM | [16] > 100 µM | [17] > 100 µM

CC(C)OP(=O)(CN(C)/C(F)=N\C(F)(F)F)OC(C)C
inactive: [1] > 100 µM | [2] > 100 µM | [3] > 100 µM | [4] 63.8 µM | [5] > 100 µM | [18] > 100 µM | [6] > 100 µM | [7] > 100 µM | [8] > 100 µM | [9] > 100 µM | [10] > 100 µM | [11] > 100 µM | [12] > 100 µM | [20] > 100 µM | [14] > 100 µM | [15] > 100 µM | [19] > 100 µM | [16] > 100 µM | [17] > 100 µM

O=C1NC(=S)NC(=O)C1C(c1ccccc1[N+](=O)[O-])C1C(=O)NC(=S)NC1=O.c1ccncc1
inactive: [1] > 100 µM | [2] > 100 µM | [4] 26.3 µM | [5] > 100 µM | [18] > 100 µM | [6] > 100 µM | [7] > 100 µM | [8] > 100 µM | [9] > 100 µM | [10] > 100 µM | [11] > 100 µM | [12] > 100 µM | [13] > 100 µM | [20] > 100 µM | [14] > 100 µM | [19] > 100 µM | [17] > 100 µM

CC1=C(C)C2(C#N)C(=O)N3C(=NC(c4ccco4)NC3c3ccco3)C2(C#N)C(c2ccco2)N1 (configuration not stated)
inactive: [1] > 100 µM | [2] > 100 µM | [3] > 100 µM | [4] > 100 µM | [5] > 100 µM | [18] > 100 µM | [6] > 100 µM | [7] > 100 µM | [8] > 100 µM | [9] > 100 µM | [10] > 100 µM | [11] > 100 µM | [12] > 100 µM | [13] > 100 µM | [20] > 100 µM | [14] > 100 µM | [15] > 100 µM | [19] > 100 µM | [17] > 100 µM

CC[C@@]12C=CC(=S)N(CCSc3ccccc3)[C@@H]1c1c(n(S(=O)(=O)c3ccc(OC)cc3)c3ccccc13)CC2
inactive: [1] > 100 µM | [2] > 100 µM | [3] > 100 µM | [4] > 100 µM | [5] > 100 µM | [18] > 100 µM | [6] > 100 µM | [7] > 100 µM | [8] > 100 µM | [9] > 100 µM | [10] > 100 µM | [11] > 100 µM | [12] > 100 µM | [20] 16.6 µM | [14] > 100 µM | [15] > 100 µM | [19] > 100 µM | [16] > 100 µM | [17] > 100 µM

O=S(=O)(O)c1ccc(O)c(/N=N/c2c(O)ccc3ccccc23)c1
inactive: [1] > 100 µM | [2] > 100 µM | [3] > 100 µM | [5] > 100 µM | [18] > 100 µM | [6] > 100 µM | [7] > 100 µM | [8] > 100 µM | [9] > 100 µM | [10] > 100 µM | [11] > 100 µM | [12] > 100 µM | [13] > 100 µM | [20] > 100 µM | [14] > 100 µM | [15] > 100 µM | [19] > 100 µM | [16] > 100 µM | [17] > 100 µM

COc1ccc2c(c1)CCCN1Cc3ccccc3CC21 (configuration not stated)
inactive: [1] 27 µM | [2] > 100 µM | [3] 98.4 µM | [4] 28.8 µM | [5] 40.8 µM | [18] 30.7 µM | [6] 65 µM | [7] 39.5 µM | [8] 38.2 µM | [9] > 100 µM | [10] 78.2 µM | [11] > 100 µM | [12] 78.9 µM | [20] 48.3 µM | [14] > 100 µM | [15] > 100 µM | [19] 64.1 µM | [16] 44.7 µM | [17] 91.2 µM

COc1ccc(-c2c(C#N)c(O)n(C3OC(CO)C(O)C(O)C3O)c(=S)c2C#N)cc1 (configuration not stated)
inactive: [1] > 100 µM | [2] > 100 µM | [4] > 100 µM | [5] > 100 µM | [6] > 100 µM | [7] > 100 µM | [8] > 100 µM | [9] > 100 µM | [10] > 100 µM | [11] > 100 µM | [12] > 100 µM | [13] > 100 µM | [20] > 100 µM | [14] > 100 µM | [15] > 100 µM | [19] > 100 µM | [16] > 100 µM | [17] > 100 µM

COc1cc(NCCC(=O)O)c2ncccc2c1
inactive: [1] > 100 µM | [3] > 100 µM | [4] > 100 µM | [5] > 100 µM | [18] > 100 µM | [7] > 100 µM | [8] > 100 µM | [9] > 100 µM | [10] > 100 µM | [11] > 100 µM | [12] > 100 µM | [20] > 100 µM | [14] > 100 µM | [19] > 100 µM | [17] > 100 µM

COc1ccc(OC)c2c(Nc3ccc(S(=O)(=O)O)c4cc(S(=O)(=O)O)cc(S(=O)(=O)O)c34)cc(C)nc12
inactive: [1] > 100 µM | [2] > 100 µM | [3] > 100 µM | [4] > 100 µM | [5] > 100 µM | [6] > 100 µM | [7] > 100 µM | [8] > 100 µM | [9] > 100 µM | [10] > 100 µM | [11] > 100 µM | [12] > 100 µM | [13] > 100 µM | [20] > 100 µM | [14] > 100 µM | [15] > 100 µM | [19] > 100 µM | [16] > 100 µM | [17] > 100 µM

O=c1[nH]nc(-c2ccccc2)n1O
inactive: [1] > 100 µM | [2] > 100 µM | [3] > 100 µM | [4] > 100 µM | [5] > 100 µM | [18] > 100 µM | [6] > 100 µM | [7] > 100 µM | [8] > 100 µM | [9] > 100 µM | [10] > 100 µM | [11] > 100 µM | [12] > 100 µM | [13] > 100 µM | [20] > 100 µM | [14] 91.4 µM | [15] > 100 µM | [19] > 100 µM | [17] > 100 µM
